In brackets after ≈: the same amount, converted by molar mass.
What was measured:
Format in all cases: cell-based
[1] = tested on: Pasteurella multocida PM 10775 (080130003051, BRD field isolate); assay: MIC, broth-microdilution (CLSI VET01-A4), strain PM 10775; conditions: Pasteurella multocida strain PM 10775, broth-microdilution; unit assumed
In short: (§1)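 Test articles are arrayed as a twofold dilution range in microdilution trays. Wells are scored by naked eye, and the MIC is taken where turbidity first disappears.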

[2] = tested on: Mannheimia haemolytica MH 13065 (XB0446-6003.9, BRD field isolate); assay: MIC, broth-microdilution (CLSI VET01-A4), strain MH 13065; conditions: Mannheimia haemolytica strain MH 13065, broth-microdilution; unit assumed
In short: as §1

[3] = tested on: Mannheimia haemolytica MH 6374 (ATCC 33396, reference strain); assay: MIC, broth-microdilution (CLSI VET01-A4), strain MH 6374; conditions: Mannheimia haemolytica strain MH 6374, broth-microdilution; unit assumed
In short: as §1

[4] = tested on: Pasteurella multocida PM 6391 (ATCC 43137, reference strain); assay: MIC, broth-microdilution (CLSI VET01-A4), strain PM 6391; conditions: Pasteurella multocida strain PM 6391, broth-microdilution; unit assumed
Experimental: For example, representative compounds were tested against ***, Mannheimia haemolytica and Pasteurella multocida, using the conventional broth-dilution assay.
The Minimum inhibitory concentrations (MIC) of compounds according to the invention for a number of veterinary bacterial pathogens were determined by the broth-microdilution method according to CLSI document VET01-A4.
Microdilution trays containing a doubling dilution series of the test compound were used for the tests. The MIC results were interpreted according to the CLSI documents VET01-S3. The lowest concentration of compound at which no visible growth (i.e. no turbidity) detected by the unaided eye was recorded as the MIC.

[5] = tested on: Mannheimia haemolytica MH 12587 (1071, BRD field isolate, macrolide-resistance: erm+, E+); assay: MIC, broth-microdilution (CLSI VET01-A4), strain MH 12587; conditions: Mannheimia haemolytica strain MH 12587, broth-microdilution; unit assumed
In short: as §1

[6] = tested on: Pasteurella multocida PM 12080 (IV102277-0093, BRD field isolate); assay: MIC, broth-microdilution (CLSI VET01-A4), strain PM 12080; conditions: Pasteurella multocida strain PM 12080, broth-microdilution; unit assumed
In short: as §1

[7] = tested on: Pasteurella multocida PM 6267 (P 2225 (L386), reference strain, mouse infection strain); assay: MIC, broth-microdilution (CLSI VET01-A4), strain PM 6267; conditions: Pasteurella multocida strain PM 6267, broth-microdilution; unit assumed
In short: as §1

[8] = tested on: Mannheimia haemolytica MH 10720 (154, BRD field isolate); assay: MIC, broth-microdilution (CLSI VET01-A4), strain MH 10720; conditions: Mannheimia haemolytica strain MH 10720, broth-microdilution; unit assumed
In short: as §1

[9] = tested on: Mannheimia haemolytica MH 6357 (M7/2, reference strain, cattle infection strain); assay: MIC, broth-microdilution (CLSI VET01-A4), strain MH 6357; conditions: Mannheimia haemolytica strain MH 6357, broth-microdilution; unit assumed
In short: as §1

[10] = tested on: Mannheimia haemolytica MH 13093 (XB0472-6014.1, BRD field isolate); assay: MIC, broth-microdilution (CLSI VET01-A4), strain MH 13093; conditions: Mannheimia haemolytica strain MH 13093, broth-microdilution; unit assumed
In short: as §1

SMILES | MIC PM 10775 [1] [µg/mL] | MIC PM 6391 [4] [µg/mL] | MIC PM 12080 [6] [µg/mL] | MIC PM 6267 [7] [µg/mL] | MIC MH 13065 [2] [µg/mL] | MIC MH 6374 [3] [µg/mL] | MIC MH 12587 [5] [µg/mL] | MIC MH 10720 [8] [µg/mL] | MIC MH 6357 [9] [µg/mL] | MIC MH 13093 [10] [µg/mL]
CSC(C)(C)[C@H](NC(=O)c1ccc(C#Cc2ccc(CNCc3nccs3)s2)cc1)C(=O)NO [Compound 365] | ≤ 0.1 | 0.4 (≈ 0.777 µM) | ≤ 0.1 | 0.4 (≈ 0.777 µM) | 1.6 (≈ 3.11 µM) | 0.8 (≈ 1.55 µM) | 3.1 (≈ 6.02 µM) | 0.2 (≈ 0.389 µM) | 0.8 (≈ 1.55 µM) | 1.6 (≈ 3.11 µM)
CC(C)(O)[C@H](NC(=O)c1ccc(C#Cc2ccc(CN3CCOCC3)nc2)cc1)C(=O)NO [Compound 326] | ≤ 0.1 | 0.4 (≈ 0.884 µM) | 0.4 (≈ 0.884 µM) | 3.1 (≈ 6.85 µM) | 3.1 (≈ 6.85 µM) | 6.3 (≈ 13.9 µM) | 12.5 (≈ 27.6 µM) | 0.8 (≈ 1.77 µM) | 3.1 (≈ 6.85 µM) | 6.3 (≈ 13.9 µM)
CC(C)(O)[C@H](NC(=O)c1ccc(C#Cc2ccc(CNCc3ccnc(Cl)c3)cc2)cc1)C(=O)NO [Compound 229] | ≤ 0.1 | ≤ 0.1 | ≤ 0.1 | ≤ 0.1 | 0.2 (≈ 0.394 µM) | 0.4 (≈ 0.789 µM) | 0.4 (≈ 0.789 µM) | ≤ 0.1 | 0.4 (≈ 0.789 µM) | 0.4 (≈ 0.789 µM)
CSC(C)(C)[C@H](NC(=O)c1ccc(C#Cc2ccc(CNCC(F)(F)F)nc2)cc1)C(=O)NO [Compound 345] | ≤ 0.1 | 0.8 (≈ 1.62 µM) | 0.4 (≈ 0.809 µM) | 0.8 (≈ 1.62 µM) | 0.8 (≈ 1.62 µM) | 1.6 (≈ 3.24 µM) | 1.6 (≈ 3.24 µM) | ≤ 0.1 | 0.8 (≈ 1.62 µM) | 1.6 (≈ 3.24 µM)
C=CCNCc1ccc(C#Cc2ccc(C(=O)N[C@H](C(=O)NO)C(C)(C)S(C)(=O)=O)cc2)cn1 [Compound 370] | ≤ 0.1 | 0.4 (≈ 0.825 µM) | 0.2 (≈ 0.413 µM) | 0.2 (≈ 0.413 µM) | 1.6 (≈ 3.3 µM) | 1.6 (≈ 3.3 µM) | 3.1 (≈ 6.4 µM) | 0.8 (≈ 1.65 µM) | 0.8 (≈ 1.65 µM) | 3.1 (≈ 6.4 µM)
CC(C)(O)[C@H](NC(=O)c1ccc(C#Cc2ccc(CNCc3cccnc3)cc2)cc1)C(=O)NO [Compound 228] | ≤ 0.1 | ≤ 0.1 | ≤ 0.1 | ≤ 0.1 | 0.4 (≈ 0.846 µM) | 0.4 (≈ 0.846 µM) | 1.6 (≈ 3.39 µM) | ≤ 0.1 | 0.8 (≈ 1.69 µM) | 0.8 (≈ 1.69 µM)
CC(=O)[C@H](NC(=O)c1ccc(C#Cc2ccc(CNC3CC3)cc2)cc1)C(=O)NO [Compound 396] | 0.8 (≈ 1.97 µM) | ≤ 0.1 | 0.4 (≈ 0.987 µM) | 12.5 (≈ 30.8 µM) | 3.1 (≈ 7.65 µM) | 1.6 (≈ 3.95 µM) | 0.4 (≈ 0.987 µM) | 1.6 (≈ 3.95 µM) | 1.6 (≈ 3.95 µM) | 3.1 (≈ 7.65 µM)
CC(C)(O)[C@H](NC(=O)c1ccc(C#Cc2ccc(CNCc3ccco3)nc2)cc1)C(=O)NO [Compound 332] | ≤ 0.1 | 0.4 (≈ 0.865 µM) | 0.2 (≈ 0.432 µM) | 0.4 (≈ 0.865 µM) | 0.8 (≈ 1.73 µM) | 0.4 (≈ 0.865 µM) | 1.6 (≈ 3.46 µM) | ≤ 0.1 | 0.4 (≈ 0.865 µM) | 0.8 (≈ 1.73 µM)
CC[C@H](C)[C@H](NC(=O)c1ccc(C#Cc2ccc(CNC)cc2)cc1)C(=O)NO [Compound 194] | ≤ 0.1 | 1.6 (≈ 4.07 µM) | 1.6 (≈ 4.07 µM) | 0.4 (≈ 1.02 µM) | 6.3 (≈ 16 µM) | 25 (≈ 63.5 µM) | 25 (≈ 63.5 µM) |  | 6.3 (≈ 16 µM) | 12.5 (≈ 31.8 µM)
CC(C)[C@H](NC(=O)c1ccc(C#Cc2ccc(CNCC(C)(C)C)cc2)cc1)C(=O)NO [Compound 95] | ≤ 0.1 |  | 0.4 (≈ 0.918 µM) | ≤ 0.1 | 3.1 (≈ 7.12 µM) | 3.1 (≈ 7.12 µM) | 6.3 (≈ 14.5 µM) | 0.8 (≈ 1.84 µM) | 1.6 (≈ 3.67 µM) | 3.1 (≈ 7.12 µM)
CC[C@H](C)[C@H](NC(=O)c1ccc(C#Cc2ccc(CNCCN(C)C)cc2)cc1)C(=O)NO [Compound 116] | 0.4 (≈ 0.888 µM) |  | 3.1 (≈ 6.88 µM) | 0.8 (≈ 1.78 µM) | 25 (≈ 55.5 µM) | 25 (≈ 55.5 µM) | 1 (≈ 2.22 µM) | 3.1 (≈ 6.88 µM) | 25 (≈ 55.5 µM) | 25 (≈ 55.5 µM)
CN(C)c1ccc(CNCc2ccc(C#Cc3ccc(C(=O)N[C@@H](CO)C(=O)NO)cc3)cc2)cc1 [Compound 134] | ≤ 0.1 |  | 3.1 (≈ 6.37 µM) | 0.8 (≈ 1.64 µM) | 12.5 (≈ 25.7 µM) | 6.3 (≈ 12.9 µM) | 12.5 (≈ 25.7 µM) | 6.3 (≈ 12.9 µM) | 25 (≈ 51.4 µM) | 25 (≈ 51.4 µM)
CC[C@H](C)[C@H](NC(=O)c1ccc(C#Cc2ccc(CNCc3ccc(N(C)C)cc3)cc2)cc1)C(=O)NO [Compound 130] | 0.4 (≈ 0.78 µM) |  | 3.1 (≈ 6.05 µM) | 3.1 (≈ 6.05 µM) | 6.3 (≈ 12.3 µM) | 3.1 (≈ 6.05 µM) | 12.5 (≈ 24.4 µM) | 1.6 (≈ 3.12 µM) | 3.1 (≈ 6.05 µM) | 6.3 (≈ 12.3 µM)
O=C(N[C@@H](CO)C(=O)NO)c1ccc(C#Cc2ccc(CNCc3ccncc3)cc2)cc1 [Compound 90] | ≤ 0.1 |  | 0.8 (≈ 1.8 µM) | ≤ 0.1 | 1.6 (≈ 3.6 µM) | 1.6 (≈ 3.6 µM) | 3.1 (≈ 6.97 µM) | 1.6 (≈ 3.6 µM) | 3.1 (≈ 6.97 µM) | 1.6 (≈ 3.6 µM)
O=C(N[C@@H](CO)C(=O)NO)c1ccc(C#Cc2ccc(CN3CCOCC3)cc2)cc1 [Compound 77] | ≤ 0.1 |  | 0.8 (≈ 1.89 µM) | ≤ 0.1 | 3.1 (≈ 7.32 µM) | 1.6 (≈ 3.78 µM) | 3.1 (≈ 7.32 µM) | 0.8 (≈ 1.89 µM) | 6.3 (≈ 14.9 µM) | 3.1 (≈ 7.32 µM)

Further lines, with some results ahead:

MIC PM 10775 [1] [µg/mL] | MIC PM 6391 [4] [µg/mL] | MIC PM 12080 [6] [µg/mL] | MIC PM 6267 [7] [µg/mL] | SMILES | MIC MH 13065 [2] [µg/mL] | MIC MH 6374 [3] [µg/mL] | MIC MH 12587 [5] [µg/mL] | MIC MH 10720 [8] [µg/mL] | MIC MH 6357 [9] [µg/mL] | MIC MH 13093 [10] [µg/mL]
≤ 0.1 | 1.6 (≈ 3.46 µM) | 0.8 (≈ 1.73 µM) | 0.4 (≈ 0.865 µM) | CC[C@H](C)[C@H](NC(=O)c1ccc(C#Cc2ccc(CN3CCN(C)CC3)cc2)cc1)C(=O)NO [Compound 175] | 12.5 (≈ 27 µM) | 12.5 (≈ 27 µM) | 25 (≈ 54 µM) | 3.1 (≈ 6.7 µM) | 6.3 (≈ 13.6 µM) | 12.5 (≈ 27 µM)
≤ 0.1 |  | 0.8 (≈ 1.56 µM) | 0.4 (≈ 0.782 µM) | CC(C)[C@H](NC(=O)c1ccc(C#Cc2ccc(CN3CCN(c4ccccn4)CC3)cc2)cc1)C(=O)NO [Compound 101] | 3.1 (≈ 6.06 µM) | 3.1 (≈ 6.06 µM) | 12.5 (≈ 24.4 µM) | 0.8 (≈ 1.56 µM) | 3.1 (≈ 6.06 µM) | 3.1 (≈ 6.06 µM)
≤ 0.1 |  | 0.4 (≈ 0.878 µM) | ≤ 0.1 | CC(C)[C@H](NC(=O)c1ccc(C#Cc2ccc(CNCc3ccccc3)cc2)cc1)C(=O)NO [Compound 104] | 0.4 (≈ 0.878 µM) | 0.4 (≈ 0.878 µM) | 1.6 (≈ 3.51 µM) | ≤ 0.1 | 0.4 (≈ 0.878 µM) | 0.8 (≈ 1.76 µM)
≤ 0.1 |  | 0.8 (≈ 1.57 µM) | 0.4 (≈ 0.785 µM) | CC(C)[C@H](NC(=O)c1ccc(C#Cc2ccc(CN3CCC(c4ccccc4)CC3)cc2)cc1)C(=O)NO [Compound 100] | 3.1 (≈ 6.08 µM) | 6.3 (≈ 12.4 µM) | 12.5 (≈ 24.5 µM) | 0.8 (≈ 1.57 µM) | 3.1 (≈ 6.08 µM) | 6.3 (≈ 12.4 µM)
0.4 (≈ 0.827 µM) |  | 1.6 (≈ 3.31 µM) | 1.6 (≈ 3.31 µM) | CC[C@H](C)[C@H](NC(=O)c1ccc(C#Cc2ccc(CN(C)Cc3ccccc3)cc2)cc1)C(=O)NO [Compound 127] | 6.3 (≈ 13 µM) | 6.3 (≈ 13 µM) | 25 (≈ 51.7 µM) | 1.6 (≈ 3.31 µM) | 3.1 (≈ 6.41 µM) | 12.5 (≈ 25.8 µM)
 | 0.8 (≈ 1.84 µM) | 0.8 (≈ 1.84 µM) | ≤ 0.1 | CC(C)(O)[C@H](NC(=O)c1ccc(C#Cc2ccc(CN3CCCC3)cc2)cc1)C(=O)NO [Compound 225] | 12.5 (≈ 28.7 µM) | 6.3 (≈ 14.5 µM) | 12.5 (≈ 28.7 µM) | 1.6 (≈ 3.67 µM) | 12.5 (≈ 28.7 µM) | 12.5 (≈ 28.7 µM)
≤ 0.1 |  | ≤ 0.1 | ≤ 0.1 | CC(C)[C@H](NC(=O)c1ccc(C#Cc2ccc(CNCC#N)cc2)cc1)C(=O)NO [Compound 204] | 0.2 (≈ 0.494 µM) | 0.4 (≈ 0.989 µM) | 0.8 (≈ 1.98 µM) | ≤ 0.1 | 0.4 (≈ 0.989 µM) | 0.4 (≈ 0.989 µM)
